Experimental findings from patent US10550399B2, “Plant transformation method using plant growth inhibiting hormone” (KANEKA CORPORATION, priority 2012, dated 2020) are described below.

The subject of assay [1] is soybeans, variety "Toyomusume". The experiment in a line: In planta Agrobacterium (LBA4404, pIG121-1) transformation of soybean axillary buds with abscisic acid. The assay is classed as in vivo, soybean (Glycine max). The conditions noted are these: abscisic acid 100 μM, axillary buds of plants 14 days after germination. The procedure:
Plant transformation was carried out in the same manner as in Example 1, except that a variety “Toyomusume” of soybeans was used and axillary buds of the plants 14 days after germination were inoculated with Agrobacterium, and then gene introduction and gene expression in the T0 generation were verified.

The test system of another assay is maize seed. The experiment in a line: In planta transformation of maize seeds using pIG121-1-carrying Agrobacterium with abscisic acid. As to conditions: abscisic acid 100 μM. Type of assay: in vivo, maize (Zea mays). As to the method:
Seeds of maize (Zea mays) were washed with sterile water 2 or 3 times to wash the red disinfectant away from the seed coat. The washed seeds were soaked in sterile water and incubated at 25° C. for 2 days. Water was exchanged with fresh water once during incubation. Thus, the seeds absorbed water and the embryonic portions became white. These seeds were used for the experiment described below. A bacterial solution containing pIG121-1-carrying Agrobacterium and abscisic acid (final concentration: 100 μM) was prepared as an Agrobacterium solution for inoculation in the same manner as in Example 1.
With the use of a needle (φ 0.71 mm), the shoot (length: 1 mm) of the embryo (longer diameter: about 1 cm) of the maize seed was pierced 4 times on the apex, in which the meristem was considered to be present, to a depth of 0.5 mm to 1 mm to provide 4 pores in an area of about 2 mm square. Thereafter, the Agrobacterium solution for inoculation prepared above was applied dropwise to the pores using a pipette to inoculate the seeds with Agrobacterium.
Subsequently, a filter paper was placed in a petri dish and moistened with water. The maize seeds inoculated with Agrobacterium were placed on the filter paper and the petri dish was covered. The petri dish was then placed in an incubator at 25° C., and incubation was carried out in the dark for 2 days. After co-culture was conducted for 2 days, the seeds were sowed in culture soil and grown.
Gene introduction in the T0 generation was verified in the same manner as in Example 1. Plants (5-leaf stage) 20 days after transformation were used for genomic PCR. […] A 544-bp PCR product indicating GUS gene introduction was detected in 2 plants.

Assay [2] relates to soybeans, variety "Toyomusume". The experiment in a line: In planta transformation of soybeans using the Agrobacterium tumefaciens M21 mutant with abscisic acid. The conditions noted are these: abscisic acid 100 μM. Type of assay: in vivo, soybean (Glycine max). The procedure:
Plant transformation was carried out in the same manner as in Example 8, except that the Agrobacterium tumefaciens M21 mutant was used, and then gene introduction in the T0 generation was verified.
The Agrobacterium tumefaciens M21 mutant (hereafter referred to as “the M21 mutant”) was obtained via mutation of the Agrobacterium tumefaciens A208 strain (C58 chromosome, nopaline T37 pTi) with the use of transposon 5 (Tn5) (Majumder, P. et al., J. Biosci. Bioeng., 90: 328-331, 2000; WO 2005/024034). In the M21 mutant, Tn5 is inserted into the tryptophan monooxygenase gene involved in biosynthesis of indoleacetic acid (IAA) in the T-DNA region of the Ti plasmid. This would cause hormone imbalance in plants transformed via infection with the M21 mutant, which would lead to phenotypic changes. Thus, the presence or absence of the transformation was easily determined via visual inspection.
Transformation efficiency (T0 generation) achieved by the method of the present invention was 75%.

Assay [3] deals with wheat seeds. Nature of the assay: In planta Agrobacterium (LBA4404, pIG121-1) transformation of wheat seeds under application of a plant growth-inhibiting hormone. The assay is classed as in vivo, wheat (Triticum aestivum L.).
Assay [4] concerns wheat seeds. Described as above. The assay is classed as in vivo, wheat (Triticum aestivum L.). The conditions noted are these: for Transformation efficiency (T0 generation×T1 generation): hormone 100 μM in bacterial solution, variety Yumechikara, shoot length about 2 mm, soaked about 20 min, co-culture 22° C. 2 days. The procedure:
Transformation efficiency for the transformed plant thus obtained can be determined. Transformation efficiency (T0 generation×T1 generation) is determined by multiplying transformation efficiency for the T0 generation (the number of transformed plants of T0 generation/the number of plants subjected to transformation) and transformation efficiency for the T1 generation (the number of transformed plants of T1 generation/(the number of plants of T1 generation subjected to the verification for incorporation of foreign genes into genomes).
The Agrobacterium into which pIG121-1 had been introduced prepared above were cultured in LB medium containing kanamycin and streptomycin (50 mg/1 each) at 28° C. for 18 hours to prepare an Agrobacterium solution. Through this culture, the transformed Agrobacterium carrying pIG121-1 were selected on the basis of functions of the kanamycin resistance gene and the streptomycin resistance gene existing outside the T-DNA region of pIG121-1.
Abscisic acid (final concentration: 100 μM) was added to the bacterial solution prepared in the manner described above, and the resulting bacterial solution was used below as an Agrobacterium solution for inoculation.
Pretreatment of seeds was carried out by soaking wheat seeds (variety: Yumechikara (Wheat Nourin 172)) in 70% ethanol for 5 minutes, followed by shaking in a 20% antiformin solution for 10 minutes. The seeds were washed with water to remove the antiformin solution, wrapped in moistened Kim towel, and then cultured at 25° C. for 36 to 40 hours for germination.
Subsequently, a portion around the shoot of the seed (shoot length: about 2 mm) was pierced with a needle (diameter: 0.71 mm) to a depth of about 1 mm to provide a pore. The seeds with thus wounded meristems were soaked in the Agrobacterium solution prepared above for about 20 minutes to inoculate the seeds with the Agrobacterium. Thereafter, the seeds were removed from the Agrobacterium solution, mounted on moistened Kim towel, and then cultured in a covered petri dish at 22° C. for 2 days (co-culture). Thus, the seeds were infected with Agrobacterium. Next, in order to disinfect Agrobacterium, the co-cultured seeds were soaked in an aqueous solution of cefotaxime (1,000 ppm) and then shaken at room temperature for 2 hours. Subsequently, the seeds were removed from the aqueous solution of cefotaxime, mounted on moistened Kim towel, and then grown in a covered petri dish at 25° C. for 2 days. The seeds were transferred to a pot containing culture soil and then grown at 25° C. under the long-day conditions (a light period of 16 hours and a dark period of 8 hours).
When the seeds grew to the 5- to 6-leaf stage, genome PCR was carried out to select transformants.
Considering that Yumechikara is an autumn wheat variety, the obtained transformants were subjected to vernalization at 4° C. for 1.5 months to facilitate flower bud formation. Subsequently, the transformants (T0 generation) were self-crossed to obtain T1 seeds, and gene introduction and gene expression in the T1 generation were verified.
Gene introduction at the T1 generation was verified via genome PCR under the same conditions as with the case of the T0 generation. […] A band of interest was detected in 3 of the 14 individuals subjected to the genome PCR.
Jasmonic acid (final concentration: 100 μM) was added to the bacterial solution prepared in the manner described above, and the resulting bacterial solution was used below as an Agrobacterium solution for inoculation.
Subsequently, a portion around the shoot of the seed (shoot length: about 2 mm) was pierced with a needle (diameter: 0.71 mm) to a depth of about 1 mm to provide a pore. The seeds with thus wound meristems were soaked in the Agrobacterium solution prepared above for about 20 minutes to inoculate the seeds with the Agrobacterium. […]

The mark [5] stands for this setting: 13 plants subjected to transformation.
The mark [6] stands for this setting: 12 plants subjected to transformation.
Setting [7] is: abscisic acid 100 μM, Yumechikara, shoot about 2 mm, co-culture 22° C., genome PCR.

With `CC1=CC(=O)CC(C)(C)[C@@]1(O)/C=C/C(C)=C\C(=O)O` [abscisic acid], the “Transformation efficiency (T0 generation)” value was 30% in assay [1]; 15.4% in the assay on maize seed (shoot 1 mm pierced 4 times, co-culture 25° C. 2 days, genomic PCR 20 days after transformation, 13 plants); 75% in assay [2] (axillary buds, tumorigenesis by visual inspection, 12 plants). The “Number of untransformed plants” value in the assay with maize seed (setting [5]) is given as 11; in assay [2] (setting [6]), 3. Moreover, the figures for the “Untransformed plants, percent” value (with maize seed (setting [5]); in assay [2] (setting [6])) were 84.6% and 25%, respectively. Further, the “Number of transformed plants” value came to 2 with maize seed (13 plants subjected to transformation, 544-bp GUS PCR product) and 9 in assay [2] (setting [6]). The “Transformation efficiency (T0 generation×T1 generation)” value in the assay with wheat seeds [3] (abscisic acid 100 μM and Tween 20 0.1%, Yumechikara, shoot 1 mm or less, vacuum treatment 20 min, co-culture 28° C.) is on record as 5.1%; in the assay with wheat seeds [3] (abscisic acid 100 μM, Tween 20 0.1%, acetosyringone 100 μM, Yumechikara, shoot 1 mm or less, vacuum treatment, co-culture 28° C.), 7.2%; in the assay with wheat seeds [3] (as Example 4 (abscisic acid 100 μM, Tween 20, acetosyringone, vacuum, 28° C.) but wheat variety Haruyokoi), 10.2%; with wheat seeds [3] (as Example 4 but 10 μM abscisic acid, Yumechikara), 6.3%; in the assay on wheat seeds [3] (as Example 4 but 300 μM abscisic acid, Yumechikara), 7.0%; in the assay on wheat seeds [4], 3.1%. In the assay on wheat seeds [4] (setting [7]), the “Transformation efficiency (T0)” value was found to be 14.3%. For the same molecule, the “Transformation efficiency (T1)” value in the assay with wheat seeds [4] (setting [7]) is recorded as 21.4%. The “Individuals with band of interest, T1 generation” value in the assay with wheat seeds [4] (abscisic acid 100 μM, of the 14 individuals subjected to genome PCR) is listed as 3. Besides, the “Individuals with GUS gene band (544 bp), T0 generation” value in the assay with wheat seeds [4] (abscisic acid 100 μM, of the 14 transformed individuals, genome PCR) worked out at 2.

As to `CC/C=C\C[C@H]1C(=O)CC[C@@H]1CC(=O)O` [jasmonic acid], the “Transformation efficiency (T0 generation×T1 generation)” value in the assay with wheat seeds [4] worked out at 2.4%.
